Structures can show the parent of a compound that is named as a salt. Where two headings read alike, the source gives them in different places.
Columns and labels:
[1] = target: T1, norepinephrine transporter (Rattus norvegicus, UniProt Q63380); test: biochemical; format: biochemical; details: rat synaptosomes, norepinephrine transporter (NET)
T1 construct: synaptosomes isolated in a 0.32 M sucrose buffer from a male Wistar rat hypothalamus; from tissue; host or cells: male Wistar rat hypothalamus synaptosomes
T1 sequence (Q63380 1-617): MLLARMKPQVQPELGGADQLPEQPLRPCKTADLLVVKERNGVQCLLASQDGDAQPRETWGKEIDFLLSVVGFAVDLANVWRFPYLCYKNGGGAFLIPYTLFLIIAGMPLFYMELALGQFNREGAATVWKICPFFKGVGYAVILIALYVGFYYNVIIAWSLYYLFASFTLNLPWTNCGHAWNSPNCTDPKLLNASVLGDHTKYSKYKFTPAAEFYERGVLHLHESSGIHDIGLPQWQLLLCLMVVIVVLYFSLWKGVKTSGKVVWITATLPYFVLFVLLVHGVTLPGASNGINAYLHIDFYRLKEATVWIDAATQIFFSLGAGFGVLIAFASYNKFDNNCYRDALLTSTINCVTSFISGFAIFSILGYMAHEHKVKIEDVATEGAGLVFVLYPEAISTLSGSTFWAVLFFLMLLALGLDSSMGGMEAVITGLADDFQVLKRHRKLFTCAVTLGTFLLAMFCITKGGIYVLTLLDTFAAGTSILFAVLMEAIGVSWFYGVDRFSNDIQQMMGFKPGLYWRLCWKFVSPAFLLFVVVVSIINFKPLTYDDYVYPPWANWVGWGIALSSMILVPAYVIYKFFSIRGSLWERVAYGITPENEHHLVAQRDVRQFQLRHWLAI

[2] = target: T2, dopamine transporter (Rattus norvegicus, UniProt P23977); test: biochemical; details: rat synaptosomes, dopamine transporter (DAT)
T2 construct: synaptosomes isolated in a 0.32 M sucrose buffer from a male Wistar rat striatum; from tissue; host or cells: male Wistar rat striatum synaptosomes
T2 sequence (P23977 whole entry): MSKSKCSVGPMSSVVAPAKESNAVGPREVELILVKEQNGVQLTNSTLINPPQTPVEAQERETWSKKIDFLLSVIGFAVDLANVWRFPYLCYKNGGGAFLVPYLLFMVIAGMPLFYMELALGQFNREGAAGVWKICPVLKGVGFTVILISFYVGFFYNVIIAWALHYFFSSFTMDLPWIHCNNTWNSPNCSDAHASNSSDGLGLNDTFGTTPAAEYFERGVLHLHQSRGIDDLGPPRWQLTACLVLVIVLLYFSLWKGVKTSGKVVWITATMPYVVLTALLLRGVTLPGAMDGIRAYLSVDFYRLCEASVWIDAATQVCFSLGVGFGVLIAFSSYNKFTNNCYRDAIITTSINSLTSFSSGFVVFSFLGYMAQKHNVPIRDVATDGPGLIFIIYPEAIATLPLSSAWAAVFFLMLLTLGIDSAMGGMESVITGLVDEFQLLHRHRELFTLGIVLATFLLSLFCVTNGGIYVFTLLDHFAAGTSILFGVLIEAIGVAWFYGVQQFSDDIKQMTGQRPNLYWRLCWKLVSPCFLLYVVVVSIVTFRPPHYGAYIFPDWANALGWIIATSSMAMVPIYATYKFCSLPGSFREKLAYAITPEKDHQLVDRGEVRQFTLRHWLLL

[3] = target: T3, serotonin transporter (Rattus norvegicus, UniProt P31652); test: biochemical; details: rat synaptosomes, serotonin transporter (SERT)
T3 construct: synaptosomes isolated in a 0.32M sucrose buffer from a male Wistar rat cortex; from tissue; host or cells: male Wistar rat cortex synaptosomes
T3 sequence (P31652 whole entry): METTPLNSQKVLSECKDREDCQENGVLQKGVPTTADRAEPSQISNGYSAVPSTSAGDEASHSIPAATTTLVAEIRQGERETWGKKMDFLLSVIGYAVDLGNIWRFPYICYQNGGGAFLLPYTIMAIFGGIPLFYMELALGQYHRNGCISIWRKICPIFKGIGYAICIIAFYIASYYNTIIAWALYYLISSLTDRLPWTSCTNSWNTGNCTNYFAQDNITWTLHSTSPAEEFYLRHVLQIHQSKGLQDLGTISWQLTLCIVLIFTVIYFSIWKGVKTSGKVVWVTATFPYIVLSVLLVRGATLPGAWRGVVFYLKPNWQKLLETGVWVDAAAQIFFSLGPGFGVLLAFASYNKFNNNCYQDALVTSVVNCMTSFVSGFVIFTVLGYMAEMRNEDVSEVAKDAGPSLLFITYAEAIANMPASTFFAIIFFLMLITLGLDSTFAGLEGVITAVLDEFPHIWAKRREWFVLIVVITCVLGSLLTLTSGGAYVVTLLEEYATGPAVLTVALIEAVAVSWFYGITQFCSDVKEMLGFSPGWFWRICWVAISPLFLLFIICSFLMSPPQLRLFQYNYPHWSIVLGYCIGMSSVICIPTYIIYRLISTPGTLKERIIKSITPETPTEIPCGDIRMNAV

[4] = system: Rats; test: Rat forced swim test; format: in vivo; details: PO, 24 hours and 30-60 minutes before the 5 minute test
[5] = system: mice; test: Mouse tail suspension test; format: in vivo; details: PO, 30-60 minutes before the test, 5 minutes recording
[6] = system: Rats; test: Rat locomotor activity; format: in vivo; details: PO
Method: In order to ensure effects of the compounds on immobility time were not related to a general stimulant effect on baseline motor activity, locomotor activity was assessed using photocell monitored cages (Med-Associates Inc.). Each test chamber was equipped with infrared photocell beams to measure movement of the animals. Horizontal and vertical activity were measured
Rats or mice were pretreated with vehicle or test compounds and placed back in home cage, following which they will be individually placed in locomotor cages and activity was monitored in 5 minute intervals for up to 60 min.
Data were analyzed by one way analysis of variance (ANOVA) followed by post-hoc comparisons where appropriate. An effect was considered significant if p < 0.05. Data are represented as the mean and standard error to the mean (s.e.m).

[7] = target: Norepinephrine Transporter (NET) Sites in Mouse Brain (Mus musculus, UniProt O55192); details: PO; for % Transporter Occupancy, NET: 60 minutes after treatment, vs vehicle; for Mean Specific Binding (dpm) ± S.E.M., NET: mice sacrificed 60 minutes after treatment, cortex
Chain of Norepinephrine Transporter (NET) Sites in Mouse Brain (O55192 whole entry): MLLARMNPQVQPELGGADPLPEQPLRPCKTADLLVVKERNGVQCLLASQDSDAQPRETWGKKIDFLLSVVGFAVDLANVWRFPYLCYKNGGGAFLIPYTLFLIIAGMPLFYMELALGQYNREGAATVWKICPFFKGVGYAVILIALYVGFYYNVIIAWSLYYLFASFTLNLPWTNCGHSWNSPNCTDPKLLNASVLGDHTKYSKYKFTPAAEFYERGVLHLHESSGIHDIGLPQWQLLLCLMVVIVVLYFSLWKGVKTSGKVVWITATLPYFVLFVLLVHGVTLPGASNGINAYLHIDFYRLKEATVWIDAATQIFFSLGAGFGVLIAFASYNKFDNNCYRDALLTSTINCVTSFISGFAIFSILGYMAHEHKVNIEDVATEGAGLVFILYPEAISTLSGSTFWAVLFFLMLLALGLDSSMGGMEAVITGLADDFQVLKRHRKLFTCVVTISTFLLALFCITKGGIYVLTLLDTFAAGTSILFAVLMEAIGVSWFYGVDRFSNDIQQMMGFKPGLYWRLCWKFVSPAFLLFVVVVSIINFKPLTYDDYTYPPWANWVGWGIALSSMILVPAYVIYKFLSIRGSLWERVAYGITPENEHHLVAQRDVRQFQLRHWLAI

[8] = system: mice; test: Mouse locomotor activity; format: in vivo; details: PO
How it was run: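 Animals pretreated with vehicle or compound, then placed individually in photocell cages. Horizontal and vertical activity recorded in 5-min bins for up to 60 min. Analysed by one-way ANOVA with post-hoc tests.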

[9] = target: T4, 5-HT Transporter (SERT) Sites in Mouse Brain (Mus musculus, UniProt Q60857); test: Ex vivo [3H] citalopram binding after oral dosing; set-up: species or system C57BL/6 mice; details: for % Transporter Occupancy, SERT: 60 minutes after treatment, vs vehicle; for Mean Specific Binding (dpm) ± S.E.M., SERT: mice sacrificed 60 minutes after treatment, cortex
T4 construct: Whole brains were removed and cortex and striata dissected out; from tissue; host or cells: C57BL/6 mouse frontal cortex homogenate
T4 sequence (Q60857 whole entry): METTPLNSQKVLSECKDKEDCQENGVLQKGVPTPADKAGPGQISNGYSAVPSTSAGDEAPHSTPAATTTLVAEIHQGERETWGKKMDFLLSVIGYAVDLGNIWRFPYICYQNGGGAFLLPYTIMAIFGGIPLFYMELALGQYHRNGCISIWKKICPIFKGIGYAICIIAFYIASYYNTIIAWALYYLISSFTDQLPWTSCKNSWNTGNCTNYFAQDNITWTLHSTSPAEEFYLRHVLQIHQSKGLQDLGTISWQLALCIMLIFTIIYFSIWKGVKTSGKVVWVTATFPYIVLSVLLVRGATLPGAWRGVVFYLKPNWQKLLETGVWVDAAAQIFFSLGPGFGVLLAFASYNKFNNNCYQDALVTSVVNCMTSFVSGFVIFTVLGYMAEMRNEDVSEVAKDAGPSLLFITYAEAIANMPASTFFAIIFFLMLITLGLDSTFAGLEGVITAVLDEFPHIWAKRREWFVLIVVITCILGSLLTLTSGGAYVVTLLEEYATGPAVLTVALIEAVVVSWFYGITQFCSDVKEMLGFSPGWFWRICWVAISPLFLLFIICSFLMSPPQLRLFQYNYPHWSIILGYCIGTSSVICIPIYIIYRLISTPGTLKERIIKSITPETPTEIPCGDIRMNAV

[10] = target: T5, DA Transporter (DAT) Sites in Mouse Brain (Mus musculus, UniProt Q61327); test: Ex vivo [3H] WIN 35428 binding after oral dosing; set-up: species or system C57BL/6 mice; details: for % Transporter Occupancy, DAT: 60 minutes after treatment, vs vehicle; for Mean Specific Binding (dpm) ± S.E.M., DAT: mice sacrificed 60 minutes after treatment, striatum
T5 construct: Striatum was used to determine occupancy of DA transporter sites; from tissue; host or cells: C57BL/6 mouse striatum homogenate
T5 sequence (Q61327 whole entry): as the sequence (P23977 whole entry) above, with S21P, A57V, A194S, H600R, L619V counted along it

[11] = target: human norepinephrine reuptake transporter (Homo sapiens, UniProt P23975); test: cell-based; details: recombinant human norepinephrine transporter (NET); read-out: Human IC50 (nM) hNET
Chain of human norepinephrine reuptake transporter (P23975 whole entry): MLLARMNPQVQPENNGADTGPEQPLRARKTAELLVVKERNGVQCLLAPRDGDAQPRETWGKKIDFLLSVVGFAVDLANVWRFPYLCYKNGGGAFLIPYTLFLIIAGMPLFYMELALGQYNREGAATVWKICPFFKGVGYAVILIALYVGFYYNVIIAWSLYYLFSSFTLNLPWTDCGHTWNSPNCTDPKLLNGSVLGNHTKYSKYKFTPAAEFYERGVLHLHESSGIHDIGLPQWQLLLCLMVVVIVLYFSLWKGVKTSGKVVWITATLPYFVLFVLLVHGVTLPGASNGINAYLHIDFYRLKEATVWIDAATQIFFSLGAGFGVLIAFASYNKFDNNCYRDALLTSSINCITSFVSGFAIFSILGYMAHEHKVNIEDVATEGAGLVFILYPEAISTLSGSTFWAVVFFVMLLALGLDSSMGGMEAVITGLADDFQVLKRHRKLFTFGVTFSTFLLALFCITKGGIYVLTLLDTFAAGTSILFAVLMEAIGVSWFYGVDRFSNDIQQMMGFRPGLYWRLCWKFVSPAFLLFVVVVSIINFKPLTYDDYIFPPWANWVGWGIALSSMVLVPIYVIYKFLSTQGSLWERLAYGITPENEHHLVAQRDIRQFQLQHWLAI

[12] = target: T6, human dopamine reuptake transporter (Homo sapiens, UniProt Q01959); test: cell-based; details: recombinant human dopamine transporter (DAT); read-out: Human IC50 (nM) hDAT
T6 construct: expressed in transfected cells; host or cells: CHO-K1 or HEK293
T6 sequence (Q01959 whole entry): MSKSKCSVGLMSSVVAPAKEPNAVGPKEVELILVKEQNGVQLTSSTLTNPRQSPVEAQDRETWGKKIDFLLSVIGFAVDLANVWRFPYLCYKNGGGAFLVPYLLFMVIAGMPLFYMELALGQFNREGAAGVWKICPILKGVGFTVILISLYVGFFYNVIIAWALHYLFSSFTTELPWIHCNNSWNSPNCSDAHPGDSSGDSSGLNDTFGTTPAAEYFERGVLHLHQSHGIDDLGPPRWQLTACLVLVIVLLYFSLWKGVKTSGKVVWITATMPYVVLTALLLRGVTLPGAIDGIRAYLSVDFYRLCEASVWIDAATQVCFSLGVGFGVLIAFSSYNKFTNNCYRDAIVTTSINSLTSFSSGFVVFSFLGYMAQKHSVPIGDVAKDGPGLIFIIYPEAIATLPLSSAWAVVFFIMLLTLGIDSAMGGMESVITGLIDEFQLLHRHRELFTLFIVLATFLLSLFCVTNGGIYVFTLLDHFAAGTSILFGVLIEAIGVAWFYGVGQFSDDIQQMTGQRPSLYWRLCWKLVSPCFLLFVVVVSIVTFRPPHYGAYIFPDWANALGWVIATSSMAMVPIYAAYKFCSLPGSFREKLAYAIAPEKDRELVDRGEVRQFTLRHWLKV

[13] = target: human serotonin reuptake transporter (Homo sapiens, UniProt P31645); test: cell-based; details: recombinant human serotonin transporter (SERT)
Chain of human serotonin reuptake transporter (P31645 whole entry): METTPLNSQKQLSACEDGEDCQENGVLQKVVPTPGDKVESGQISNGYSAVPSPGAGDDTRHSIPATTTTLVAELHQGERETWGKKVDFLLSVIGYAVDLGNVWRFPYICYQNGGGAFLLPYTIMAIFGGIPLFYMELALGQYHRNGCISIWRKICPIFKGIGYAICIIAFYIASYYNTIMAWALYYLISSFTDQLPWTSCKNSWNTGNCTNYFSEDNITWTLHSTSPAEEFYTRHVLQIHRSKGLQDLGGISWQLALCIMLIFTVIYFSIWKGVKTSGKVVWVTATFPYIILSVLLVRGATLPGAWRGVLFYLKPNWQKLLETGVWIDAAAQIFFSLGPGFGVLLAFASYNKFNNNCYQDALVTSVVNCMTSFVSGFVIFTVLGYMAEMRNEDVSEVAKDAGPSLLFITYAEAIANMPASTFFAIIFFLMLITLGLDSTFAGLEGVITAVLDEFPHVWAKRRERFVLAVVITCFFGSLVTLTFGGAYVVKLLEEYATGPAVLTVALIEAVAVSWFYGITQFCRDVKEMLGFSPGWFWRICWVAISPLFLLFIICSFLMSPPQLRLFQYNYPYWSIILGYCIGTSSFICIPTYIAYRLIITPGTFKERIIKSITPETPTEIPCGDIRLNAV

[14] = literature; cited from earlier work
[15] = target: serotonin uptake sites (Homo sapiens, UniProt P31645); details: compared with the racemic compound; U.S. Patent No. 6,372,919; cited from earlier work
[16] = read-out: Human IC50 (nM) hSERT

CC(N(C)C)C1(c2ccc3ccccc3c2)CCCCC1 (single isomer, unassigned) [56 E2, N,N-dimethyl-1-(1-(naphthalen-2-yl)cyclohexyl)ethanamine]
IC50 ([1]; Rat IC50 (nM) rNET): 79 nM
IC50 ([2]; Rat IC50 (nM) rDAT): 100 nM
IC50 ([3]; Rat IC50 (nM) rSERT): 120 nM

CC(N(C)C)C1(c2ccc3ccccc3c2)CCCCC1 (single isomer, unassigned) [56 E1, N,N-dimethyl-1-(1-(naphthalen-2-yl)cyclohexyl)ethanamine]
Rat Forced Swim (Means ± S.E.M.) Climbing ([4]; 3 mg/kg): 7.1 ± 1.6
Rat Forced Swim (Means ± S.E.M.) Immobility ([4]; 3 mg/kg): 52.2 ± 1.6
Rat Forced Swim (Means ± S.E.M.) Swimming ([4]; 3 mg/kg): 0.3 ± 0.2
Rat Forced Swim (Means ± S.E.M.) Climbing ([4]; 10 mg/kg): 8.6 ± 0.9
Rat Forced Swim (Means ± S.E.M.) Immobility ([4]; 10 mg/kg): 50.7 ± 1.0
Rat Forced Swim (Means ± S.E.M.) Swimming ([4]; 10 mg/kg): 0.8 ± 0.3
Rat Forced Swim (Means ± S.E.M.) Climbing ([4]; 30 mg/kg): 17.9 ± 2.4
Rat Forced Swim (Means ± S.E.M.) Immobility ([4]; 30 mg/kg): 40.4 ± 2.7
Rat Forced Swim (Means ± S.E.M.) Swimming ([4]; 30 mg/kg): 1.0 ± 0.4
IC50 ([1]; Rat IC50 (nM) rNET): 2.3 nM
IC50 ([2]; Rat IC50 (nM) rDAT): 24 nM
Mouse Tail Suspension Mean Immobility Time ± S.E.M. ([5]; 3 mg/kg): 184.0 ± 4.8
Mouse Tail Suspension Mean Immobility Time ± S.E.M. ([5]; 10 mg/kg): 174.8 ± 6.1
Mouse Tail Suspension Mean Immobility Time ± S.E.M. ([5]; 30 mg/kg): 141.9 ± 7.4
Rat Locomotor Activity Total Distance Traveled ± S.E.M. ([6]; 3 mg/kg): 1227.9 ± 84.4
Rat Locomotor Activity Total Distance Traveled ± S.E.M. ([6]; 10 mg/kg): 1230.8 ± 64.8
Rat Locomotor Activity Total Distance Traveled ± S.E.M. ([6]; 30 mg/kg): 1359.8 ± 132.7
% Transporter Occupancy, NET ([7]; 1 mg/kg): 20%
Mean Specific Binding (dpm) ± S.E.M., NET ([7]; 1 mg/kg): 616 ± 50 dpm
% Transporter Occupancy, NET ([7]; 3 mg/kg): 52%
Mean Specific Binding (dpm) ± S.E.M., NET ([7]; 3 mg/kg): 368 ± 17 dpm
% Transporter Occupancy, NET ([7]; 10 mg/kg): 86%
Mean Specific Binding (dpm) ± S.E.M., NET ([7]; 10 mg/kg): 106 ± 20 dpm
% Transporter Occupancy, NET ([7]; 30 mg/kg): 98%
Mean Specific Binding (dpm) ± S.E.M., NET ([7]; 30 mg/kg): 19 ± 2 dpm
Mouse Locomotor Activity Total Distance Traveled ± S.E.M. ([8]; 3 mg/kg): 410.2 ± 89.3
Mouse Locomotor Activity Total Distance Traveled ± S.E.M. ([8]; 10 mg/kg): 440.2 ± 62.6
Mouse Locomotor Activity Total Distance Traveled ± S.E.M. ([8]; 30 mg/kg): 252.2 ± 55.8
% Transporter Occupancy, SERT ([9]; 1 mg/kg): 19%
Mean Specific Binding (dpm) ± S.E.M., SERT ([9]; 1 mg/kg): 2625 ± 138 dpm
% Transporter Occupancy, SERT ([9]; 3 mg/kg): 58%
Mean Specific Binding (dpm) ± S.E.M., SERT ([9]; 3 mg/kg): 1346 ± 109 dpm
% Transporter Occupancy, SERT ([9]; 10 mg/kg): 91%
Mean Specific Binding (dpm) ± S.E.M., SERT ([9]; 10 mg/kg): 278 ± 42 dpm
% Transporter Occupancy, SERT ([9]; 30 mg/kg): 95%
Mean Specific Binding (dpm) ± S.E.M., SERT ([9]; 30 mg/kg): 151 ± 60 dpm
% Transporter Occupancy, DAT ([10]; 1 mg/kg): 5%
Mean Specific Binding (dpm) ± S.E.M., DAT ([10]; 1 mg/kg): 41561 ± 1611 dpm
% Transporter Occupancy, DAT ([10]; 3 mg/kg): 4%
Mean Specific Binding (dpm) ± S.E.M., DAT ([10]; 3 mg/kg): 42127 ± 2130 dpm
% Transporter Occupancy, DAT ([10]; 10 mg/kg): 23%
Mean Specific Binding (dpm) ± S.E.M., DAT ([10]; 10 mg/kg): 33478 ± 1779 dpm
% Transporter Occupancy, DAT ([10]; 30 mg/kg): 67%
Mean Specific Binding (dpm) ± S.E.M., DAT ([10]; 30 mg/kg): 14637 ± 1567 dpm
IC50 ([3]; Rat IC50 (nM) rSERT): 2.9 nM

CNCC1(c2ccccc2)CCCCC1 [Compound 80, N-methyl(1-phenylcyclohexyl)methanamine (hydrochloride)]
IC50 [11]: > 10000 nM
IC50 [12]: > 10000 nM
IC50 [13, 16]: 9170 nM

CNC[C@@]1(c2ccc3ccccc3c2)CCCC[C@H]1O (single isomer, unassigned) [147 E1]
IC50 ([1]; read-out: Rat IC50 (nM) rNET): 370 nM
IC50 ([2]; read-out: Rat IC50 (nM) rDAT): 1200 nM
IC50 ([3]; read-out: Rat IC50 (nM) rSERT): 18 nM

CNCC1(c2ccc(OC(F)(F)F)cc2)CCC(O)CC1 (centres unmarked) [Compound 249, 4-((methylamino)methyl)-4-(4-(trifluoromethoxy)phenyl)cyclohexanol]
IC50 [11]: > 10000 nM
IC50 [12]: > 10000 nM
IC50 [13, 16]: 405 nM

CNCC1(c2ccc3c(c2)OCO3)CCC(O)CC1 (centres unmarked) [Compound 237, 4-(benzo[d][1,3]dioxol-5-yl)-4-((methylamino)methyl)cyclohexanol]
IC50 [11]: > 10000 nM
IC50 [12]: 9130 nM
IC50 [13, 16]: 7300 nM

NCC1(c2ccc(Cl)cc2Cl)CCCCC1 [Compound 38, (1-(2,4-dichlorophenyl)cyclohexyl)methanamine]
IC50 [11]: > 10000 nM
IC50 [12]: 9650 nM
IC50 ([13]; Human IC50 (nM) hSERT): 472 nM

CC1(O)CCC(CN)(c2ccc(OC(F)(F)F)cc2)CC1 (centres unmarked) [Compound 219, 4-(aminomethyl)-1-methyl-4-(4-(trifluoromethoxy)phenyl)-cyclohexanol]
IC50 [11]: > 10000 nM
IC50 [12]: > 10000 nM
IC50 [13, 16]: 269 nM

NCC1(c2ccc(OC(F)(F)F)cc2)CCCCC1 [Compound 15, (1-(4-(trifluoromethoxy)phenyl)cyclohexyl)methanamine]
IC50 [11]: > 10000 nM
IC50 [12]: > 10000 nM
IC50 ([13]; Human IC50 (nM) hSERT): 1400 nM

CN(C)CC1(c2ccc(Cl)c(Cl)c2)CCC(F)(F)CC1 [Compound 269, 1-(1-(3,4-dichlorophenyl)-4,4-difluorocyclohexyl)-N,N-dimethylmethanamine]
IC50 [11]: 36 nM
IC50 [12]: < 1 nM
IC50 [13, 16]: 787 nM

CNC[C@@]1(c2ccc3ccccc3c2)CCCC[C@@H]1O (single isomer, unassigned) [148 E2]
IC50 ([1]; read-out: Rat IC50 (nM) rNET): 4900 nM
IC50 ([2]; read-out: Rat IC50 (nM) rDAT): 680 nM
IC50 ([3]; read-out: Rat IC50 (nM) rSERT): 330 nM

NCC1(c2ccccc2)CCCCC1 [Compound 31, (1-phenylcyclohexyl)methaneamine hydrochloride]
IC50 [11]: > 10000 nM
IC50 [12]: > 10000 nM
IC50 [13, 16]: > 10000 nM

Clc1ccc(C23CNCC2C3)cc1Cl (single isomer, unassigned; (+)) [DOV 21,947, (+)-1-(3,4-dichlorophenyl)-3-azabicyclo[3.1.0]hexane]
immobility in the tail suspension test [14]: dose-dependent reduction in immobility
affinity for the serotonin uptake sites [15]: significantly greater affinity

CNC[C@]1(c2ccc3ccccc3c2)CCCC[C@@H]1O (single isomer, unassigned) [147 E2]
IC50 ([1]; read-out: Rat IC50 (nM) rNET): 1200 nM
IC50 ([2]; read-out: Rat IC50 (nM) rDAT): 1500 nM
IC50 ([3]; read-out: Rat IC50 (nM) rSERT): 1700 nM
